For 3 molecules, inhibition results are on record in publication PMC6430017, “Structural and chemical insights into the covalent-allosteric inhibition of the protein kinase Akt” (Chemical Science, 2019).

Some targets named below: PASK (Homo sapiens, UniProt Q96RG2); RPS6KA5 (MSK1) (Homo sapiens, UniProt O75582); ERBB2 (HER2) (Homo sapiens, UniProt P04626); PKN1 (PRK1) (Homo sapiens, UniProt Q16512); PRKCD (PKC delta) (Homo sapiens, UniProt Q05655); RPS6KA3 (RSK2) (Homo sapiens, UniProt P51812); CHEK2 (CHK2) (Homo sapiens, UniProt O96017); MELK (Homo sapiens, UniProt Q14680); SYK (Homo sapiens, UniProt P43405); MARK1 (MARK) (Homo sapiens, UniProt Q9P0L2); PRKCG (PKC gamma) (Homo sapiens, UniProt P05129); PRKCB2 (PKC beta II) (Homo sapiens, UniProt P05771); EGFR (ErbB1) (Homo sapiens, UniProt P00533); GRK4 (Homo sapiens, UniProt P32298); ABL1 (Homo sapiens, UniProt P00519); RPS6KB1 (p70S6K) (Homo sapiens, UniProt P23443); PIM1 (Homo sapiens, UniProt P11309).

Holding throughout (assay): SelectScreen Z'LYTE kinase profiling
What all share (type): biochemical
Conditions in all cases: ATP at apparent KM

The next assay deals with T1, STK3 (MST2) (Homo sapiens, UniProt Q13188).
T1 sequence (Q13188 1-491): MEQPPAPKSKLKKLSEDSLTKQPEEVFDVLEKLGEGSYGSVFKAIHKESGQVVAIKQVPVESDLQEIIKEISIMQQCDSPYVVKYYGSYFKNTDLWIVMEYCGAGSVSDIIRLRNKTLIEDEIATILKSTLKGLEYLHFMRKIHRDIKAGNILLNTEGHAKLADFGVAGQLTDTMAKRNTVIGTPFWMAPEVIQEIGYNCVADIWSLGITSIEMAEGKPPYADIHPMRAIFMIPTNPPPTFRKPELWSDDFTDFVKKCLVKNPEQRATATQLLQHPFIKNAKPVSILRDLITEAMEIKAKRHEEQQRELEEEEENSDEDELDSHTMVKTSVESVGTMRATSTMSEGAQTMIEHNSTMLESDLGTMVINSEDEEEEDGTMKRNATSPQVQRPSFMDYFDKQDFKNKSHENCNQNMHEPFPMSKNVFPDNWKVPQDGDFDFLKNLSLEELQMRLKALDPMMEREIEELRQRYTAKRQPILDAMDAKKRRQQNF

The next assay addresses T2, ACVR1B (ALK4) (Homo sapiens, UniProt P36896).
T2 sequence (P36896 24-505): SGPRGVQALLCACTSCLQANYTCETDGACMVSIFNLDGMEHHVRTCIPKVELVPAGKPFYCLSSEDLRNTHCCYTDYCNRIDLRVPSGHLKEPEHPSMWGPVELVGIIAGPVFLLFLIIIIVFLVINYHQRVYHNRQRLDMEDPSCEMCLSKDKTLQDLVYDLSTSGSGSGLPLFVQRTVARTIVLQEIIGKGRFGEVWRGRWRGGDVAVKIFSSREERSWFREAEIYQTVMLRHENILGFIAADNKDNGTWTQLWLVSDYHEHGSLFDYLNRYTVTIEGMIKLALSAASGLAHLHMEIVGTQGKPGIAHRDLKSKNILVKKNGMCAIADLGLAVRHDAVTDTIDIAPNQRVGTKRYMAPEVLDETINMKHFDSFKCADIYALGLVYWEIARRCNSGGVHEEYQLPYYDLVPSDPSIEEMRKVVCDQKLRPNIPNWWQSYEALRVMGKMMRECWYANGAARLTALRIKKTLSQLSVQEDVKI

Sequence of RPS6KA5 (MSK1) (O75582 whole entry): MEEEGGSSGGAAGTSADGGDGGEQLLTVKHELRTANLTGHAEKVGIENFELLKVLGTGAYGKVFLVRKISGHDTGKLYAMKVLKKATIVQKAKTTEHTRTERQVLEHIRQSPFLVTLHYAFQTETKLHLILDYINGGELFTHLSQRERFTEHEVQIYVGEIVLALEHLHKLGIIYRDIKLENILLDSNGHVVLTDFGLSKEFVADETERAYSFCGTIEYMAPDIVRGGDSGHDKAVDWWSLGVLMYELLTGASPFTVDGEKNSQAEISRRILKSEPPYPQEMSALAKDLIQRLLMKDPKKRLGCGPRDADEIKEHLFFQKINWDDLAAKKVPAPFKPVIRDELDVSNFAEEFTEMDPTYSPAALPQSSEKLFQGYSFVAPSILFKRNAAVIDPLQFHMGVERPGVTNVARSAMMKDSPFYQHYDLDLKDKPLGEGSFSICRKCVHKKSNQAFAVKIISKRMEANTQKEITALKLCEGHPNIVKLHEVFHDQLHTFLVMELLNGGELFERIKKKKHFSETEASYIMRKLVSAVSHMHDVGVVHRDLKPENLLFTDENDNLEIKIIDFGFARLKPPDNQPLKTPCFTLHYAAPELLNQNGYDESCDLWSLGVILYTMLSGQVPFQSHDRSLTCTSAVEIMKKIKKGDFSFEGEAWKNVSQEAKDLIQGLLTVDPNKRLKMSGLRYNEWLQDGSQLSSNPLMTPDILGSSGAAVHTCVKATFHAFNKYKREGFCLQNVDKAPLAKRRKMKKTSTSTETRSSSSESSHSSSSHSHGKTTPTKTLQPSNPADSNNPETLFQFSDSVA
Sequence of PIM1 (P11309 whole entry): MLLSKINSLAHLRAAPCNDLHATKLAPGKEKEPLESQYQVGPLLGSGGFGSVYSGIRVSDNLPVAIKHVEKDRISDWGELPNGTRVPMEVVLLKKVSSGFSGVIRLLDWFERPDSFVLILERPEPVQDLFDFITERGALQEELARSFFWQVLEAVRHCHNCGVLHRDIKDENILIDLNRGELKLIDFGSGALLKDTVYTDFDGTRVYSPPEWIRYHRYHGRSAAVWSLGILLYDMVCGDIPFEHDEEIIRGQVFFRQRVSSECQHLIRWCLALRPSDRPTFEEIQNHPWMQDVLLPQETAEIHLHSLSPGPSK
Sequence of GRK4 (P32298 whole entry): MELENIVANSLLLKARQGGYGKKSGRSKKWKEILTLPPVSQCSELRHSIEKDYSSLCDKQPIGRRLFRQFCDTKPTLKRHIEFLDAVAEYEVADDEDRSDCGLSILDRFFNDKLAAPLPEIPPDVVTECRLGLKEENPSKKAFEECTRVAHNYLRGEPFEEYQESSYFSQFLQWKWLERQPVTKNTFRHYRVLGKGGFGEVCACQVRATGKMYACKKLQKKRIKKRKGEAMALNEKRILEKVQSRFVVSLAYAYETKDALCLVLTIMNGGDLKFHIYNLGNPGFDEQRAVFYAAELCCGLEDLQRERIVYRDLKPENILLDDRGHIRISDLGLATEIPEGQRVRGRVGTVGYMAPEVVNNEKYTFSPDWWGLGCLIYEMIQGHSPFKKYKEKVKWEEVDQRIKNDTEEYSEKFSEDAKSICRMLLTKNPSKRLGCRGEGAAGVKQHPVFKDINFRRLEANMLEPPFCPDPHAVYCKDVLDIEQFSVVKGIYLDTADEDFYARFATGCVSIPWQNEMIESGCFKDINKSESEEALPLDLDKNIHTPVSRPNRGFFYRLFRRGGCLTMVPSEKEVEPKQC
Sequence of PRKCB2 (PKC beta II) (P05771 1-673 isoform P05771-2): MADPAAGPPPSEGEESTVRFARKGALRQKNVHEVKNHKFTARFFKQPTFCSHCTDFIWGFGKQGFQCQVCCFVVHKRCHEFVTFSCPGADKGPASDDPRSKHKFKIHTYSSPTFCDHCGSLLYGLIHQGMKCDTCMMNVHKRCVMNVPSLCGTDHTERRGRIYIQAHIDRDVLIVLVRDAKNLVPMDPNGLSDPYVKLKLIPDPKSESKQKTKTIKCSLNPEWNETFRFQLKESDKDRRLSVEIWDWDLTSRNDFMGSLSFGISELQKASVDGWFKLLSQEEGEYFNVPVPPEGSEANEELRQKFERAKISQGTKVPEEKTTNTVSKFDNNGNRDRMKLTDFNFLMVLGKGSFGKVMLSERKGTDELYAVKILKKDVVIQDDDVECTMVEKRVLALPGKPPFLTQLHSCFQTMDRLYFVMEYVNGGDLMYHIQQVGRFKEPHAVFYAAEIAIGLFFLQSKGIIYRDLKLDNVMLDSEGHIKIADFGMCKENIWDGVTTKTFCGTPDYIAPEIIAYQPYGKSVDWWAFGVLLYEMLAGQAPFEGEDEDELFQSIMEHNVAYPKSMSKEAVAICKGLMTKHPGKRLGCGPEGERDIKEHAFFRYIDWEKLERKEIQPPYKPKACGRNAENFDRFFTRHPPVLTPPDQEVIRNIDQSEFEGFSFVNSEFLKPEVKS
Sequence of ABL1 (P00519 whole entry): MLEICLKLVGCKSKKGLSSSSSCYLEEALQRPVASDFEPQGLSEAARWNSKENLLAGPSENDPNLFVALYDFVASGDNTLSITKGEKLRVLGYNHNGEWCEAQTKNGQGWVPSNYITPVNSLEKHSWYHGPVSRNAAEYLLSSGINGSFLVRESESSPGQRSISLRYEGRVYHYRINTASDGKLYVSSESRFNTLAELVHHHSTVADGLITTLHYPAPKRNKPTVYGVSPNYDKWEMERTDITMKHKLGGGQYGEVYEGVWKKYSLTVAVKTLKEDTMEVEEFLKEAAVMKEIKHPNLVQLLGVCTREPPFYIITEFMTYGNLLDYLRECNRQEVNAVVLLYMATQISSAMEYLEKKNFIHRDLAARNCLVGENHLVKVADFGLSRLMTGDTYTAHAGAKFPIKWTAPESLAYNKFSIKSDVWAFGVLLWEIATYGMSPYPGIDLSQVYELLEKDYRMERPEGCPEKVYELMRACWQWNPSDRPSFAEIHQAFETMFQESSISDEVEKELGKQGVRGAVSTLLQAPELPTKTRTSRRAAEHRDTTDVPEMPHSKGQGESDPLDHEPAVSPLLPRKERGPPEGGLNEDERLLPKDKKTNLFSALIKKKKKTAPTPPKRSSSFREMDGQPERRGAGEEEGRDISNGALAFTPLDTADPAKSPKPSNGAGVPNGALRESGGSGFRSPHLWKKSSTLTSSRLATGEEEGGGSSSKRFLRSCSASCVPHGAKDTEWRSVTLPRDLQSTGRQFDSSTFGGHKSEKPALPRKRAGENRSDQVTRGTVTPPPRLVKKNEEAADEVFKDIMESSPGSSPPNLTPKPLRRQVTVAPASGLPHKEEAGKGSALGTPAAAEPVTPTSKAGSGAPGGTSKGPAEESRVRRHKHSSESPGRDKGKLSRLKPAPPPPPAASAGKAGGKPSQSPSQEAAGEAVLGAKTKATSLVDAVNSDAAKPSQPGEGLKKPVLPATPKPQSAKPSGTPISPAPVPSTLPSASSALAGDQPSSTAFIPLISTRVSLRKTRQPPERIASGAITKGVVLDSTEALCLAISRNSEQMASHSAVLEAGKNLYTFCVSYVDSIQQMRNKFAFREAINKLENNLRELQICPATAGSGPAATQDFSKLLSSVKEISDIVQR
Sequence of RPS6KA3 (RSK2) (P51812 whole entry): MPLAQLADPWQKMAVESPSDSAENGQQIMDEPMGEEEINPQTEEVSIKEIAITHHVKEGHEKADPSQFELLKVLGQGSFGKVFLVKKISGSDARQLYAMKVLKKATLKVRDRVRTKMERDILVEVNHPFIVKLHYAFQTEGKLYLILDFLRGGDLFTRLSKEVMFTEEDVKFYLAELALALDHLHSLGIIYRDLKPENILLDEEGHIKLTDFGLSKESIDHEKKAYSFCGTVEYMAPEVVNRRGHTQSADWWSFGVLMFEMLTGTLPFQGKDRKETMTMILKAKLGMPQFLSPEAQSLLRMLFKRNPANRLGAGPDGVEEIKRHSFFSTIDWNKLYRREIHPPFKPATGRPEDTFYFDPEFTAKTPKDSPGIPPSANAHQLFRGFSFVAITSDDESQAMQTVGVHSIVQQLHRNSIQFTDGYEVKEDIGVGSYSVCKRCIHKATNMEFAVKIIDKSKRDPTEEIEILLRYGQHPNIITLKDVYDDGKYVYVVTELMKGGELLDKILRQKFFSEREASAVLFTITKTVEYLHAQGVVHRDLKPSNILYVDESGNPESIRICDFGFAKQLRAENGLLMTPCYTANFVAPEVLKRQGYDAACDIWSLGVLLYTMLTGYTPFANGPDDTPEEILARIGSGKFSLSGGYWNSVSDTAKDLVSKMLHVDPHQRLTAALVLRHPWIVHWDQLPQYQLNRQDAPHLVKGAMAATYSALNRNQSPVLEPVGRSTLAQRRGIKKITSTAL
Sequence of PRKCD (PKC delta) (Q05655 whole entry): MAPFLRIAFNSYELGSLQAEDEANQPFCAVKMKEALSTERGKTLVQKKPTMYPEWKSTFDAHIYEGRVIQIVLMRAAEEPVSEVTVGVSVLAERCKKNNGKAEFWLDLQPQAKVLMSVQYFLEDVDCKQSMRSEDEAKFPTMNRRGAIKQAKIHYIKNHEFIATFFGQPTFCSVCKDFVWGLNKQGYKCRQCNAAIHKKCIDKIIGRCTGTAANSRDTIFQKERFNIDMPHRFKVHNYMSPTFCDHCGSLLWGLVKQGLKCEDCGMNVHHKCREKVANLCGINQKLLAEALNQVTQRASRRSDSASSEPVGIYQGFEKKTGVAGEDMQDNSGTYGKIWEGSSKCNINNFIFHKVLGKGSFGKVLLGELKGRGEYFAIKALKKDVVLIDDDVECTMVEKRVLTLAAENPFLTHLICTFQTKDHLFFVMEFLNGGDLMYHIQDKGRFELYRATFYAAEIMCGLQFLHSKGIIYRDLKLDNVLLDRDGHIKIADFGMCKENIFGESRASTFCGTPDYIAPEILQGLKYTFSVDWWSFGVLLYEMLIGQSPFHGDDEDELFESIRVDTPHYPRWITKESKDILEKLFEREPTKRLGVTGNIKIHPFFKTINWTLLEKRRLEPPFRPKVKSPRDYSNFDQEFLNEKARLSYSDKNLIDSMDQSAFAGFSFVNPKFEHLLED
Method for ABL1: (§1) protein kinases at a compound concentration of 1 µM. Measurements were performed in duplicates
(§2) and at the particular apparent ATP KM of each individual kinase employing the activity based Z’LYTE®
(§3) kinase assay of the SelectScreen® Kinase Profiling Services (ThermoFisher Scientific).
(§4) kinases at a compound concentration of 1 µM. Measurements were performed in duplicates and at
(§5) the particular apparent ATP KM of each individual kinase employing the activity based Z’LYTE® kinase
(§6) assay of the SelectScreen® Kinase Profiling Services (ThermoFisher Scientific).
Method for ACVR1B (ALK4): as §1, §2, §3, §4, §5, §6
Method for CHEK2 (CHK2): as §1, §2, §3, §4, §5, §6
Method for EGFR (ErbB1): as §1, §2, §3, §4, §5, §6
Method for ERBB2 (HER2): as §1, §2, §3, §4, §5, §6
Method for GRK4: as §1, §2, §3, §4, §5, §6
Method for MARK1 (MARK): as §1, §2, §3, §4, §5, §6
Method for MELK: as §1, §2, §3, §4, §5, §6
Method for PASK: as §1, §2, §3, §4, §5, §6
Method for PIM1: as §1, §2, §3, §4, §5, §6
Method for PKN1 (PRK1): as §1, §2, §3, §4, §5, §6
Method for PRKCB2 (PKC beta II): as §1, §2, §3, §4, §5, §6
Method for PRKCD (PKC delta): as §1, §2, §3, §4, §5, §6
Method for PRKCG (PKC gamma): as §1, §2, §3, §4, §5, §6
Method for RPS6KA3 (RSK2): as §1, §2, §3, §4, §5, §6
Method for RPS6KA5 (MSK1): as §1, §2, §3, §4, §5, §6
Method for STK3 (MST2): as §1, §2, §3, §4, §5, §6
Method for SYK: as §1, §2, §3, §4, §5, §6

For `C=CC(=O)Nc1ccc2c(c1)n(C1CCN(Cc3ccc(-c4nc5cc[nH]c(=O)c5cc4-c4ccccc4)cc3)CC1)c(=O)n2C` [24b], the inhibition at 1 µM at PASK is 4%; at RPS6KA5 (MSK1) it was 8%; on ERBB2 (HER2) it was -1%; at PKN1 (PRK1) it was -1%; on PRKCD (PKC delta) it was 0%; at RPS6KA3 (RSK2) it was 14%. The inhibition at 1 µM at CHEK2 (CHK2) is -13%; at MELK, 48%; on SYK it was 4%; at MARK1 (MARK), 2%; on PRKCG (PKC gamma), -3%; on PRKCB2 (PKC beta II) it was -5%. Besides, the inhibition at 1 µM at EGFR (ErbB1) is -8%; at GRK4 it was -1%; on ABL1 it was 2%; at STK3 (MST2), -13%; at RPS6KB1 (p70S6K), 32%; on PIM1, -21%. The inhibition at 1 µM at ACVR1B (ALK4) was -1%.

On to `C=CC(=O)Nc1cccc(C(=O)NC2CCN(Cc3ccc(-c4nc5cc[nH]c(=O)c5cc4-c4ccccc4)cc3)CC2)c1` [30b], for which the inhibition at 1 µM at PASK was 29%; at RPS6KA5 (MSK1), 13%; on ERBB2 (HER2) it was -2%; at PKN1 (PRK1), 1%; at PRKCD (PKC delta) it was 9%; on RPS6KA3 (RSK2), 30%. The inhibition at 1 µM at CHEK2 (CHK2) is -12%; on MELK, 52%; at SYK it was 15%; at MARK1 (MARK), 5%; at PRKCG (PKC gamma), 0%; at PRKCB2 (PKC beta II), -1%. Also, the inhibition at 1 µM at EGFR (ErbB1) is 1%; on GRK4, 6%; on ABL1 it was 3%; on STK3 (MST2), -19%; on RPS6KB1 (p70S6K), 8%; at PIM1 it was -15%. On ACVR1B (ALK4), the inhibition at 1 µM is 0%.

For the molecule `C=CC(=O)Nc1cc(NC(=O)NC2CCN(Cc3ccc(-c4nc5cc[nH]c(=O)c5cc4-c4ccccc4)cc3)CC2)ccc1Cl` [compound 27], the inhibition at 1 µM on PASK amounted to 61%; at RPS6KA5 (MSK1), 13%; on ERBB2 (HER2), 0%; at PKN1 (PRK1), 6%; on PRKCD (PKC delta), 6%; at RPS6KA3 (RSK2), 23%. Moreover, the inhibition at 1 µM was 1% at CHEK2 (CHK2); 83% on MELK; 5% on SYK; 7% on MARK1 (MARK); -6% on PRKCG (PKC gamma); -12% at PRKCB2 (PKC beta II). The inhibition at 1 µM was 2% on EGFR (ErbB1); 11% at GRK4; 3% at ABL1; -3% on STK3 (MST2); 29% at RPS6KB1 (p70S6K); -18% at PIM1. On ACVR1B (ALK4), the inhibition at 1 µM was -8%.

As a reminder, the inhibition is the change of the read-out against control, counted positive when it falls.
